Test results: publication PMC3478282, “Probing the Putative Active Site of YjdL: An Unusual Proton-Coupled Oligopeptide Transporter from E. coli” (PLoS ONE, 2012)
Residues, ends and D or L forms follow the SMILES beside them.

Assays:
Type in all cases: cell-based, E. coli
[1] = biological target: T1, YdgR Tyr292Ala (Escherichia coli, UniProt P77304, Y292A); experiment: β-Ala-Lys(AMCA) uptake and inhibition assay, YdgR Tyr292Ala
T1 construct: host or cells: E. coli BL21(DE3)pLysS
Experimental: (§1) Plasmids were transformed into E. coli BL21(DE3)pLysS cells by heat shock and transformants were selected on agar plates containing 100 µg/mL ampicillin and 34 µg/mL chloramphenicol. Single transformants were inoculated into 2 mL LB-media with antibiotics as above and grown overnight. The cultures were diluted 1∶50 in 5 mL LB-media with antibiotics as above, and at an OD600 of 0.5–0.8 protein expression was induced by the addition of 1 mM isopropyl β-D-1-thiogalactopyranoside (IPTG). The cells were harvested after three hours of induction by centrifugation and resuspended in uptake buffer (50 mM MES pH 6.5, 140 mM NaCl, 5.4 mM KCl, 1.8 mM CaCl2, 0.8 mM MgSO4, and 5 mM glucose).
(§2) Uptake assays were performed as previously described, [20]. In a final assay volume of 100 µL; 0.2 mM β-Ala-Lys-N-7-amino-4-methylcoumarin-3-acetic acid (β-Ala-Lys(AMCA), Biotrend) (10 µL) and various concentrations of ligands (purchased from Bachem or Sigma-Aldrich) or uptake buffer (50 µL) were incubated with bacterial cell suspension (OD600 = 10, 40 µL) at 37°C. […] Finally the cell pellet was resuspended in 100 µL uptake buffer, and the uptake was quantified by fluorescence measurements (excitation at 340 nm and emission at 460 nm) on a Safire 2 fluorimeter. Non-specific uptake was measured as described above on IPTG-induced E. coli BL21(DE3)pLysS cells harboring the empty pTTQ18 vector. […]

[2] = biological target: T2, YdgR Tyr38Phe (Escherichia coli, UniProt P77304, Y38F); experiment: β-Ala-Lys(AMCA) uptake and inhibition assay, YdgR Tyr38Phe
T2 construct: host or cells: E. coli BL21(DE3)pLysS
Experimental: as §1, §2

[3] = biological target: T3, YjdL Asp392Glu (Escherichia coli, UniProt P39276, D392E); experiment: β-Ala-Lys(AMCA) uptake assay, YjdL Asp392Glu; conditions: standard conditions: 0.2 mM, 5 min, pH 6.5 (Figure 3)
T3 construct: host or cells: E. coli BL21(DE3)pLysS
Experimental: as §1, §2

[4] = biological target: T4, YjdL Lys117Arg (Escherichia coli, UniProt P39276, K117R); experiment: β-Ala-Lys(AMCA) uptake assay, YjdL Lys117Arg; conditions: 0.2 mM, 5 min, pH 6.5 (Figure 3)
T4 construct: host or cells: E. coli BL21(DE3)pLysS
Experimental: as §1, §2

[5] = biological target: T5, YjdL Lys117Gln (Escherichia coli, UniProt P39276, K117Q); experiment: β-Ala-Lys(AMCA) uptake assay, YjdL Lys117Gln; conditions: 0.2 mM, 5 min, pH 6.5 (Figure 3)
T5 construct: host or cells: E. coli BL21(DE3)pLysS
Experimental: as §1, §2

[6] = biological target: T6, YjdL Tyr21Arg (Escherichia coli, UniProt P39276, Y21R); experiment: β-Ala-Lys(AMCA) uptake assay, YjdL Tyr21Arg; conditions: 0.2 mM, 5 min, pH 6.5 (Figure 3)
T6 construct: host or cells: E. coli BL21(DE3)pLysS
Experimental: as §1, §2

[7] = biological target: T7, YjdL Tyr25Leu (Escherichia coli, UniProt P39276, Y25L); experiment: β-Ala-Lys(AMCA) uptake assay, YjdL Tyr25Leu; conditions: 0.2 mM, 5 min, pH 6.5 (Figure 3)
T7 construct: expressed in transfected cells; host or cells: E. coli BL21(DE3)pLysS, pTTQ18-yjdL mutant (QuikChange)
Experimental: as §1, §2

[8] = biological target: T8, YjdL Gly284Met (Escherichia coli, UniProt P39276, G284M); experiment: β-Ala-Lys(AMCA) uptake assay, YjdL Gly284Met; conditions: 0.2 mM, 5 min, pH 6.5 (Figure 3)
T8 construct: host or cells: E. coli BL21(DE3)pLysS
Experimental: as §1, §2

[9] = test system: YjdL Tyr113Asn; experiment: β-Ala-Lys(AMCA) uptake assay, YjdL Tyr113Asn; conditions: 0.2 mM, 5 min, pH 6.5 (Figure 3)
Experimental: as §1, §2

[10] = biological target: T9, WT-YdgR (Escherichia coli, UniProt P77304); experiment: cell-based; conditions: IC50 (inhibition of β-Ala-Lys(AMCA) uptake)
T9 construct: expressed in transfected cells; host or cells: E. coli BL21(DE3)pLysS, pTTQ18-ydgR, IPTG-induced
T9 sequence (P77304 1-500): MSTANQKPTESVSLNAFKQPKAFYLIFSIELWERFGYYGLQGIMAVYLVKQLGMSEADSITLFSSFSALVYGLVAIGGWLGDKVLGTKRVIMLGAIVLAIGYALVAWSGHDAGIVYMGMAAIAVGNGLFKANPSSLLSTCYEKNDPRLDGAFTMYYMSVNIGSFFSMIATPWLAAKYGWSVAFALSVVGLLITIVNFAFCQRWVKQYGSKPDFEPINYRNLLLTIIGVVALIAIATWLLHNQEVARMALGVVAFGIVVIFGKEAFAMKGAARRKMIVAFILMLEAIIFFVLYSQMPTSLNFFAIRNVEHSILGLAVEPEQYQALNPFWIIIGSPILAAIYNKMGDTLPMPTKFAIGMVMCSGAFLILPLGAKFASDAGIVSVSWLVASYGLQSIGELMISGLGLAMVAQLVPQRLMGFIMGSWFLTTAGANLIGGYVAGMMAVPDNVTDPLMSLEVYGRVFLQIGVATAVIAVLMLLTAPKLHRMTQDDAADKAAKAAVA
Experimental: as §1, with “The cells were harvested after three hours of induction by centrifugation and resuspended in uptake buffer (50 mM MES pH 6.5, 140 mM NaCl, 5.4 mM KCl, 1.8 mM CaCl2, 0.8 mM MgSO4, and 5 mM glucose).” left out
Uptake assays were performed as previously described, [20]. In a final assay volume of 100 µL; 0.2 mM β-Ala-Lys-N-7-amino-4-methylcoumarin-3-acetic acid (β-Ala-Lys(AMCA), Biotrend) (10 µL) and various concentrations of ligands (purchased from Bachem or Sigma-Aldrich) or uptake buffer (50 µL) were incubated with bacterial cell suspension (OD600 = 10, 40 µL) at 37°C. After 5 min, the uptake was stopped by addition of 500 µL ice-cold uptake buffer followed by immediate centrifugation and washing twice in ice-cold uptake buffer. Finally the cell pellet was resuspended in 100 µL uptake buffer, and the uptake was quantified by fluorescence measurements (excitation at 340 nm and emission at 460 nm) on a Safire 2 fluorimeter. Non-specific uptake was measured as described above on IPTG-induced E. coli BL21(DE3)pLysS cells harboring the empty pTTQ18 vector. All uptake assay experiments were reproduced at least three times independently and data analyses were performed using GraphPad Prism ver. 5.

[11] = biological target: T10, YdgR Tyr292Phe (Escherichia coli, UniProt P77304, Y292F); experiment: β-Ala-Lys(AMCA) uptake inhibition assay, YdgR Tyr292Phe; conditions: 0.2 mM β-Ala-Lys(AMCA), 5 min incubation, pH 6.5; ±SEM, n≥3
T10 construct: host or cells: E. coli BL21(DE3)pLysS
Experimental: as §1, §2

[12] = 0.2 mM, 5 min, pH 6.5 (Figure 4)

T2 sequence (P77304 whole entry Y38F): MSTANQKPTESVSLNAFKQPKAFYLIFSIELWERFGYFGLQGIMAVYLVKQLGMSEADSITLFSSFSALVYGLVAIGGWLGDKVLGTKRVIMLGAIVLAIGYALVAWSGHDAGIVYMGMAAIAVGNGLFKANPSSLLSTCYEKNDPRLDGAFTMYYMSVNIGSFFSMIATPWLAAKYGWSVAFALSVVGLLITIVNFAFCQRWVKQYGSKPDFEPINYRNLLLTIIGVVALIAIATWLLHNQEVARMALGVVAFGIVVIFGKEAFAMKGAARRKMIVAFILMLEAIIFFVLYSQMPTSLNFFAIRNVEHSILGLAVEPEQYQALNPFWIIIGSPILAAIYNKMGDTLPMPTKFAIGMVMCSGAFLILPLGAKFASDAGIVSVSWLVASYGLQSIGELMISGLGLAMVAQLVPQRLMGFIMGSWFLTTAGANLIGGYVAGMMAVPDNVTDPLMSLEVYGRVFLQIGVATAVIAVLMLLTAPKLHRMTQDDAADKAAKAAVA
T1 sequence (P77304 whole entry Y292A): as the sequence (P77304 whole entry Y38F) above, with F38Y, Y292A counted along it
T5 sequence (P39276 whole entry K117Q): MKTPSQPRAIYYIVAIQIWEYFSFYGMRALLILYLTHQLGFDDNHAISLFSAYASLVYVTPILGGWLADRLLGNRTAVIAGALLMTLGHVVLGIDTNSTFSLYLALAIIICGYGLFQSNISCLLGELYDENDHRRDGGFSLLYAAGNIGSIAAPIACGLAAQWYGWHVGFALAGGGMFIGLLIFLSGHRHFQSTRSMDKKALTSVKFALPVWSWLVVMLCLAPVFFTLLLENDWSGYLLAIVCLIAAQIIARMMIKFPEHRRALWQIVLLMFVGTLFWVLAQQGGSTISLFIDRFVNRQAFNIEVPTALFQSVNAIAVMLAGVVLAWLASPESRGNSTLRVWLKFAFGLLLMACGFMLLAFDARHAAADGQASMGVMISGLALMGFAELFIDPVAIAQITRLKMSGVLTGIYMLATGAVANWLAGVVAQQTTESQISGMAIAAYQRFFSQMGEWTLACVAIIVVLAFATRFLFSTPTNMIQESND
T7 sequence (P39276 whole entry Y25L): as the sequence (P39276 whole entry K117Q) above, with Y25L, Q117K counted along it
T4 sequence (P39276 whole entry K117R): as the sequence (P39276 whole entry K117Q) above, with Q117R counted along it
T8 sequence (P39276 whole entry G284M): as the sequence (P39276 whole entry K117Q) above, with Q117K, G284M counted along it
T10 sequence (P77304 whole entry Y292F): as the sequence (P77304 whole entry Y38F) above, with F38Y, Y292F counted along it
T6 sequence (P39276 whole entry Y21R): as the sequence (P39276 whole entry K117Q) above, with Y21R, Q117K counted along it
T3 sequence (P39276 whole entry D392E): as the sequence (P39276 whole entry K117Q) above, with Q117K, D392E counted along it

Compound | increase of β-Ala-Lys(AMCA) uptake, YdgR Tyr292Ala [1, 12] [fold] | β-Ala-Lys(AMCA) uptake level, YdgR Tyr38Phe [2, 12] [%] | β-Ala-Lys(AMCA) uptake level, YjdL Asp392Glu [3] [%] | β-Ala-Lys(AMCA) uptake level, YjdL Lys117Arg [4] [%] | β-Ala-Lys(AMCA) uptake level, YjdL Lys117Gln [5] [%] | β-Ala-Lys(AMCA) uptake level, YjdL Tyr21Arg [6] [%] | β-Ala-Lys(AMCA) uptake level, YjdL Tyr25Leu [7] [%] | β-Ala-Lys(AMCA) uptake level, YjdL Gly284Met [8] [%] | increase of β-Ala-Lys(AMCA) uptake, YjdL Tyr113Asn [9] [fold] | IC50 ([10]; WT-YdgR a) [µM] | IC50 ([10]; WT-YdgR b) [µM] | IC50 [11] [µM] | IC50 ([1]; 0.2 mM β-Ala-Lys(AMCA), 5 min incubation, pH 6.5, ±SEM, n≥3) [µM] | IC50 ([2]; 0.5 mM β-Ala-Lys(AMCA), 15 min incubation, pH 6.5, ±SEM, n≥3, read-out: IC50 (inhibition of β-Ala-Lys(AMCA) uptake), YdgR Tyr38Phe b) [µM]
β-Ala-Lys-N-7-amino-4-methylcoumarin-3-acetic acid [β-Ala-Lys(AMCA)] | ~4 | 10 | 26 | 17 | 9 | 11 | 14 | 20 | ~2 | – | – | – | – | –
C[C@H](N)C(=O)N[C@@H](C)C(=O)O [Ala-Ala] (H-Ala-Ala-OH) | – | – | – | – | – | – | – | – | – | 390 ± 40 | 1040 ± 60 | 150 ± 30 | 590 ± 50 | 920 ± 60
